Tests used:
[1] = molecular target: T1, Ab42 fibrils (Homo sapiens, UniProt P05067); assay: Measurement of maximum excitation and emission wavelengths (SpectraMax M2); assay type: physicochemical; conditions: 10 μM Ab42 fibrils, 5 μM compound, PBS buffer
T1 construct: 10 μM of Ab42 fibrils
Description: The maximum excitation and emission wavelengths λmax of the Compounds 1, 2, 4, and 5 according to the present invention were measured by SpectraMax M2 (molecular devices). 10 μM of Ab42 fibrils and 5 μM of each compound, produced by the aforementioned method, as final concentrations were used in a PBS buffer solution. In general, the excitation λmax is determined by scanning the fixed first emission, and the emission λmax is determined by scanning the excitation spectrum with the fixed λmax. The absorbance of each of the Compound 1, Compound 2, Compound 4, and Compound 5 synthesized above was measured, and the results thereof are shown in FIG. 2.

[2] = molecular target: T2, beta-amyloid (Aβ42 aggregate) (Homo sapiens, UniProt P05067); assay: Evaluation of activity (fluorescence) before and after binding to beta-amyloid; conditions: for Change in fluorescence intensity after binding to beta-amyloid: before vs after binding to Aβ42 aggregate; for Faβ/F0 (fluorescence reactivity to the Aβ peptide): before vs after binding to Aβ peptide
T2 construct: 10 μM of Ab42 fibrils
T2 sequence (P05067 672-713 limits assumed): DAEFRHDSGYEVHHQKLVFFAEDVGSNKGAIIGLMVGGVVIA
Description: Regarding each of the Compound 1, Compound 2, Compound 4, and Compound 5 synthesized above, the activity before and after binding to beta-amyloid was evaluated, and the results thereof are shown in FIG. 3. […] Moreover, the absorption wavelengths of each of the Compound 1, Compound 2, Compound 4, and Compound 5 before and after binding to beta-amyloid are shown in Table 2 below. […] In particular, regarding the fluorescence reactivity to the Aβ peptide, the Faβ/F0 values of the Compounds 1, 2, 4, and 5 were 4.3, 11.6, 3.1, and 9.6, respectively, indicating high fluorescence properties (see Table 2 below). Furthermore, from FIG. 3, it was confirmed that there was a clear difference in the emission wavelength before and after the compound according to the present invention bound to the amyloid plaque.

[3] = Retina-targeting experiment in laboratory mouse (IVIS spectrum CT imaging); assay type: in vivo; conditions: 8 mg/kg tail vein, 3-month-old nude mouse
Description: A water-soluble Compound 1 (8 mg/kg) was injected into the tail vein of a 3-month-old nude mouse, and imaging was carried out with an IVIS spectrum CT system device, and the results thereof are shown in FIG. 4.

T1 sequence (P05067 672-713 limits assumed): as above

Row | λem [1] [nm] | λex [1] [nm] | Change in fluorescence intensity after binding to beta-amyloid [2] [fold] | Faβ/F0 (fluorescence reactivity to the Aβ peptide) [2] | fluorescence signal in the eye of mouse ([3]; 1 minute after intravenous injection) | fluorescence signal in the eye of mouse ([3]; 10 minutes after intravenous injection) | SMILES
1 | 620 | 570 | 3.1 | 3.1 | – | – | CC1(C)C(/C=C/c2ccc(N3CCNCC3)cc2)=[N+](CCCCS(=O)(=O)[O-])c2ccc3ccccc3c21 [Compound 4, (E)-4-(1,1-dimethyl-2-(4-(piperazin-1-yl)styryl)-1H-benzo[e]indol-3-ium-3-yl)butane-1-sulfonate]
2 | 765 | 805 | 11.6 | 11.6 | – | – | CN(C)c1ccc(-c2ccc(/C=C/C3=[N+](CCCCS(=O)(=O)[O-])c4ccc5ccccc5c4C3(C)C)s2)cc1 [Compound 2, (E)-4-(2-(2-(5-(4-(dimethylamino)phenyl)thiophen-2-yl)vinyl)-1,1-dimethyl-1H-benzo[e]indol-3-ium-3-yl)butane-1-sulfonate]
3 | 620 | 560 | 4.3 | 4.3 | strong fluorescence signal | weak fluorescence signal | CN(C)c1ccc(/C=C/C2=[N+](CCCCS(=O)(=O)[O-])c3ccc4ccccc4c3C2(C)C)cc1 [Compound 1]
4 | 760 | 575 | 9.6 | 9.6 | – | – | CNc1ccc(-c2ccc(/C=C/C3=[N+](CCCCS(=O)(=O)[O-])c4ccc5ccccc5c4C3(C)C)s2)cc1 [Compound 5, (E)-4-(1,1-dimethyl-2-(2-(5-(4-(methylamino)phenyl)thiophen-2-yl)vinyl)-1H-benzo[e]indol-3-ium-3-yl)butane-1-sulfonate]
